Results taken from publication PMC10609996, “The Toxicological Assessment of Anoectochilus burmannicus Ethanolic-Extract-Synthesized Selenium Nanoparticles Using Cell Culture, Bacteria, and Drosophila melanogaster as Suitable Models” (Nanomaterials, 2023).
Values joined by “and” are separate entries in the source; they are usually repeats but may differ in a detail not shown here. Equal entries are not always repeated.

Tests used:
[1] = system: Salmonella typhimurium TA 98; assay: Ames test, anti-mutagenicity, TA 98; format: cell-based
[2] = system: hPBMCs; assay: Cytotoxicity on hPBMCs (SRB assay); conditions: at up to 16 µM of Se
Protocol: (§1) Human blood samples of healthy subjects were obtained from Maharaj Hospital, Chiang Mai, Thailand, which were anonymized by the laboratory and kept in a heparinized tube. […] The remaining RBCs were used in a hemolysis assay. […] Consent to participate was not applicable because of anonymous data collection. All methods were carried out following relevant guidelines and regulations.

[3] = system: Salmonella typhimurium TA 98; assay: Ames test, mutagenicity, TA 98
Protocol: (§2) 2-aminoanthracene (2-AA) and 2-(2-furyl)-3-(5-nitro-2-furyl)-acrylamide (AF-2) standard mutagens were used as positive control. 2-AA was used in the presence of S9 mixture, while AF-2 was used without the S9 mixture. Deionized water (DI) and DMSO were used as negative controls for the samples and mutagens, respectively. The mixture solution was poured onto the minimal histidine agar and then incubated at 37 °C for 48 h. The revertant colonies formed on the agar plate were scored.
(§3) Three plates were investigated per dose in two independent experiments for both mutagenicity and antimutagenicity tests.

[4] = system: Salmonella typhimurium TA 100; assay: Ames test, anti-mutagenicity, TA 100; format: cell-based
Protocol: The antimutagenicity was indicated based on percentage inhibition which was calculated as in the following equation:Antimutagenicity (%) = [1 − (b/a)] × 100
(§4) • a = revertant colony number induced via standard mutagen (positive control) • b = revertant colony number induced by standard mutagen in the presence of each sample treatment

[5] = system: 3T3-L1; assay: Cytotoxic assay (MTT) in 3T3-L1; conditions: at up to 16 µM
[6] = system: HEK-293; assay: Cytotoxic assay (MTT) in HEK-293; format: cell-based, human; conditions: HEK-293, MTT
Protocol: (§5) Cell viability (%) = (Absorbance (sample))/(Absorbance (control)) × 100 […]
(§6) Cell proliferation was determined using an MTT assay at indicated time.
(§7) The solution was gently removed, then the crystal was dissolved by dimethyl sulfoxide (DMSO). The cell viability is directly related to the […]
(§8) to a decrease in cell numbers. […]
(§9) the starting point (0 h) (B-E).

[7] = system: hRBCs; assay: Hemolysis assay
Protocol: as §1
Human RBCs were collected after the separation of hPBMCs from whole blood. The 5% RBCs suspension then was mixed with several concentrations of the various forms of selenium and incubated at 37 °C for three hours. […] Hemoglobin released by damaged cells can be used as a marker of red blood cell lysis following test agent exposure and can notice as a red-color solution that can be measured for absorbance using spectrophotometry. Triton X-100 was used as a positive control.

[8] = system: LX-2; assay: Cytotoxic assay (MTT) in LX-2; format: cell-based, human; conditions: LX-2, MTT
Protocol: as §5, §6, §7, §8, §9

[9] = system: Salmonella typhimurium TA 100; assay: Ames test, mutagenicity, TA 100
Protocol: as §2, §3

[10] = system: MRC-5; assay: Cytotoxic assay (MTT) in MRC-5; format: cell-based, human; conditions: MRC-5, MTT
Protocol: as §5, §6, §7, §8, §9

[11] = system: Salmonella typhimurium TA 98; assay: Ames test, anti-mutagenicity, TA 98; format: cell-based; conditions: TA 98, +S9, PhIP (0.1 µg/Plate)
Protocol: To determine the antimutagenicity of the samples, 6-phenylimidazo [4,5-b]pyridine (PhIP) and 2-Amino-3-methylimidazo [4,5-f]quinoline (IQ) were used as standard mutagens (positive control) in the test of TA98 and TA100, respectively, in the presence of S9 mixture. The antimutagenicity was indicated based on percentage inhibition which was calculated as in the following equation:Antimutagenicity (%) = [1 − (b/a)] × 100
as §4

[12] = system: Caco2; assay: Cytotoxic assay (MTT) in Caco2; format: cell-based, human
Protocol: as §5, §6, §7, §8, §9

[13] = system: Drosophila melanogaster; assay: SMART (wing spot test), mutagenicity; format: in vivo; design: key to Statistical diagnosis: Small Single (m = 2) / Statistical diagnosis: Large Single (m = 5) / Statistical diagnosis: Twin (m = 5) / Statistical diagnosis: Total Spots (m = 2): + = positive; − = negative; i = inconclusive; conditions: 20 mM
Protocol: Urethane (20 mM) was used as a mutagen (positive control) and DI was used as a negative control. The larvae were fed on each medium until pupation at 25 °C. Later, the wings of surviving flies were removed for mutant spot analysis. Approximately 40 wings in each group were scored for the presence of mutant spots, including small single spots, large single spots, and twin spots. The results were diagnosed using the estimation of spot frequencies and confidence limits for comparison with the control group, and the statistical significance was calculated as previously described by Frei and Würgler.

[14] = system: Drosophila melanogaster; assay: SMART (wing spot test), anti-mutagenicity; conditions: mutagen alone, 1 mM
Protocol: The wing spots were scored as mentioned above. The percentage of anti-mutagenicity of the nanoparticles (% inhibition) was calculated as in the following equation:Antimutagenicity (%) = [(a − b)/a] × 100
• a = number of total spots per wing of positive mutagen control group • b = number of total spots per wing of each experimental group

[15] = TA 98, −S9, AF-2 (0.1 µg/Plate), 3.12 µM/plate
[16] = TA 98, −S9, AF-2 (0.1 µg/Plate), 6.25 µM/plate
[17] = TA 98, −S9, AF-2 (0.1 µg/Plate), 12.5 µM/plate
[18] = TA 100, +S9, IQ (0.05 µg/Plate), 3.12 µM/plate
[19] = TA 100, +S9, IQ (0.05 µg/Plate), 6.25 µM/plate
[20] = TA 100, +S9, IQ (0.05 µg/Plate), 12.5 µM/plate
[21] = TA 100, −S9, AF-2 (0.01 µg/Plate), 3.12 µM/plate
[22] = TA 100, −S9, AF-2 (0.01 µg/Plate), 6.25 µM/plate
[23] = TA 100, −S9, AF-2 (0.01 µg/Plate), 12.5 µM/plate

## O=[Se]([O-])[O-].[Na+].[Na+] [Na2SeO3, sodium selenite]
[1]; TA98, −S9
  anti-mutagenic activity in the AF-2-induced mutation model: not observed
[1]; [15]
  % mutagenic inhibition: 9%
  Number of Revertant Colonies: 315 ± 6
[1]; [16]
  % mutagenic inhibition: 4%
  Number of Revertant Colonies: 335 ± 24
[1]; [17]
  % mutagenic inhibition: 5%
  Number of Revertant Colonies: 329 ± 14
[2]
  cell viability of hPBMCs: not harmful
[3]; TA 98, +S9, 3.12 µM/plate
  Number of Revertant Colonies: 25 ± 5
[3]; TA 98, +S9, 6.25 µM/plate
  Number of Revertant Colonies: 26 ± 4
[3]; TA 98, +S9, 12.5 µM/plate
  Number of Revertant Colonies: 27 ± 5
[3]; TA 98, −S9, 3.12 µM/plate
  Number of Revertant Colonies: 22 ± 2
[3]; TA 98, −S9, 6.25 µM/plate
  Number of Revertant Colonies: 21 ± 1
[3]; TA 98, −S9, 12.5 µM/plate
  Number of Revertant Colonies: 23 ± 3
[3]; TA98 and TA 100, presence or absence of S9 homogenate
  mutagenicity in Ames test: neither pro-mutagen nor mutagen
[4]; [18]
  % mutagenic inhibition: 11%
  Number of Revertant Colonies: 435 ± 24
[4]; [19]
  % mutagenic inhibition: 18%
  Number of Revertant Colonies: 404 ± 20
[4]; [20]
  % mutagenic inhibition: 21%
  Number of Revertant Colonies: 385 ± 28
[4]; TA100, +S9, IQ, 6.25–12.5 µM/plate
  inhibition of mutagen-induced revertant colonies: 18–21%
[4]; TA100, −S9
  anti-mutagenic activity in the AF-2-induced mutation model: not observed
[4]; [21]
  % mutagenic inhibition: −17%
  Number of Revertant Colonies: 541 ± 82
[4]; [22]
  % mutagenic inhibition: −24%
  Number of Revertant Colonies: 570 ± 40
[4]; [23]
  % mutagenic inhibition: −30%
  Number of Revertant Colonies: 597 ± 58
[5]
  toxicity to pre 3T3-L1: not toxic
[6]; 48 h vs starting point 0 h
  effect on cell number (cell proliferation, Supplementary Figure S5): killing effect
[6]; selenium concentration
  IC50: 9 µM
[7]; Se concentration 4 µM, 37 °C, three hours
  % Hemolysis: 0.01 ± 0.059%
[7]; Se concentration 6.25 µM, 37 °C, three hours
  % Hemolysis: 0.14 ± 0.036%
[7]; Se concentration 8 µM, 37 °C, three hours
  % Hemolysis: 0.06 ± 0.024%
[7]; Se concentration 50 µM, 37 °C, three hours
  % Hemolysis: 0.08 ± 0.074%
[8]; 48 h vs starting point 0 h
  effect on cell number (cell proliferation, Supplementary Figure S5): killing effect
[8]; selenium concentration
  IC50: 11.2 µM
[9]; TA 100, +S9, 3.12 µM/plate
  Number of Revertant Colonies: 121 ± 8
[9]; TA 100, +S9, 6.25 µM/plate
  Number of Revertant Colonies: 122 ± 11
[9]; TA 100, +S9, 12.5 µM/plate
  Number of Revertant Colonies: 126 ± 7
[9]; TA 100, −S9, 3.12 µM/plate
  Number of Revertant Colonies: 117 ± 7
[9]; TA 100, −S9, 6.25 µM/plate
  Number of Revertant Colonies: 110 ± 4
[9]; TA 100, −S9, 12.5 µM/plate
  Number of Revertant Colonies: 112 ± 7
[10]; 48 h vs starting point 0 h
  effect on cell number (cell proliferation, Supplementary Figure S5): killing effect
[10]; selenium concentration
  IC50: 10.5 µM
[11]; 3.12 µM/plate
  % mutagenic inhibition: 7%
  Number of Revertant Colonies: 341 ± 14
[11]; 6.25 µM/plate
  % mutagenic inhibition: 6%
  Number of Revertant Colonies: 345 ± 9
[11]; 12.5 µM/plate
  % mutagenic inhibition: 10%
  Number of Revertant Colonies: 332 ± 23
[12]; 48 h vs starting point 0 h
  effect on cell number (cell proliferation, Supplementary Figure S5): killing effect
[12]; selenium concentration
  IC50: 4 µM and ~4 µM

## Cn1c(N)nc2c3cccnc3ccc21 [IQ, 2-Amino-3-methylimidazo [4,5-f]quinoline]
[4]; TA 100, +S9, standard mutagen alone, 0.05 µg/Plate
  Number of Revertant Colonies: 490 ± 20 (0)

## NC(=O)C(=Cc1ccc([N+](=O)[O-])o1)c1ccco1 [AF-2, 2-(2-furyl)-3-(5-nitro-2-furyl)-acrylamide]
[1]; TA 98, −S9, standard mutagen alone, 0.1 µg/Plate
  Number of Revertant Colonies: 347 ± 20 (0)
[3]; TA 98, −S9, 0.1 µg/plate
  Number of Revertant Colonies: 299 ± 20
[4]; TA 100, −S9, standard mutagen alone, 0.01 µg/Plate
  Number of Revertant Colonies: 460 ± 36 (0)
[9]; TA 100, −S9, 0.1 µg/plate
  Number of Revertant Colonies: 500 ± 73

## Triton X-100
[7]; positive control, run beside each Se form
  % Hemolysis: 98 ± 0.052% and 100 ± 0.23%

## Nc1ccc2cc3ccccc3cc2c1 [2-AA, 2-aminoanthracene]
[3]; TA 98, +S9, 0.5 µg/plate
  Number of Revertant Colonies: 318 ± 24
[9]; TA 100, +S9, 0.5 µg/plate
  Number of Revertant Colonies: 590 ± 38

## CCOC(N)=O [Urethane, ethyl carbamate]
[13]; 40 wings
  Frequency of Mutant Spots Per Individual: Large Single (m = 5): 10.50
  Frequency of Mutant Spots Per Individual: Small Single (m = 2): 24.75
  Frequency of Mutant Spots Per Individual: Total Spots (m = 2): 36.25
  Frequency of Mutant Spots Per Individual: Twin (m = 5): 1.0
  Number of Spots: Large Single (m = 5): 420
  Number of Spots: Small Single (m = 2): 990
  Number of Spots: Total Spots (m = 2): 1450
  Number of Spots: Twin (m = 5): 40
[13]; vs DI
  Statistical diagnosis: Large Single (m = 5): +
  Statistical diagnosis: Small Single (m = 2): +
  Statistical diagnosis: Total Spots (m = 2): +
  Statistical diagnosis: Twin (m = 5): +

## CCOS(C)(=O)=O [EMS, ethyl methanesulfonate]
[14]
  Frequency of Mutant Spots Per Individual: Large Single (>2 Cells): 2.850
  Frequency of Mutant Spots Per Individual: Small Single (1–2 Cells): 7.400
  Frequency of Mutant Spots Per Individual: Total Spots: 11.300
  Frequency of Mutant Spots Per Individual: Twin Spots: 1.050
  Number of Spots: Large Single (>2 Cells): 114
  Number of Spots: Small Single (1–2 Cells): 296
  Number of Spots: Total Spots: 452
  Number of Spots: Twin Spots: 42
[14]; vs deionized water
  Statistical diagnosis: Large Single (>2 Cells): +
  Statistical diagnosis: Small Single (1–2 Cells): +
  Statistical diagnosis: Total Spots: +
  Statistical diagnosis: Twin Spots: +
